Measurements taken from the supplement of paper PMC8967900.

Tests used:
Assay in all cases: selective drug sensitivity score (sDSS, relative to normal bone marrow) (sDSS (score)); higher = more potent and effective on the cell line relative to normal bone marrow cells
Settings in all cases: 72 h
[1] = system: ALL-PO
[2] = system: COG-LL-317
[3] = system: COG-LL-332h
[4] = system: COG-LL-394h
[5] = system: HAL-01
[6] = system: HPB-ALL
[7] = system: KARPAS-45
[8] = system: KASUMI-10
[9] = system: KOPN-8
[10] = system: LC4-1
[11] = system: MHH-CALL-3
[12] = system: MHH-CALL-4
[13] = system: MOLT-14
[14] = system: MOLT-16
[15] = system: MOLT-4
[16] = system: NALL-1
[17] = system: NALM-6
[18] = system: P30-OHKUBO
[19] = system: SUP-B15
[20] = system: TMD5
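Also: ALL cell lines in 384-well plates, five doses spanning 10,000-fold, each plate scaled between vehicle and 100 µmol/L benzalkonium chloride controls, sDSS an adapted area-under-curve metric.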

| SMILES | selective drug sensitivity score [1] | selective drug sensitivity score [2] | selective drug sensitivity score [3] | selective drug sensitivity score [4] | selective drug sensitivity score [5] | selective drug sensitivity score [6] | selective drug sensitivity score [7] | selective drug sensitivity score [8] | selective drug sensitivity score [9] | selective drug sensitivity score [10] | selective drug sensitivity score [11] | selective drug sensitivity score [12] | selective drug sensitivity score [13] | selective drug sensitivity score [14] | selective drug sensitivity score [15] | selective drug sensitivity score [16] | selective drug sensitivity score [17] | selective drug sensitivity score [18] | selective drug sensitivity score [19] | selective drug sensitivity score [20] |
| --- | --- | --- | --- | --- | --- | --- | --- | --- | --- | --- | --- | --- | --- | --- | --- | --- | --- | --- | --- | --- |
| COc1cc2c(NC3CCN(C(C)C)CC3)nc(C3CCCCC3)nc2cc1OCCCN1CCCC1 [UNC0638] (top concentration 10000 nM) | -1.74 | 0.06 | 0.66 | 0.16 | -4.64 | -3.44 | 2.36 | -3.34 | -4.44 | -2.84 | 0.86 | -3.94 | -0.94 | -1.04 | -3.74 | -5.14 | -3.64 | 0.86 | -1.04 | -4.84 |
| CCCCNc1ncc(C(=O)NCc2ccc(-n3ccnc3)cc2)c(NC2CCC(O)CC2)n1 (stereo not given) [UNC2881] (top concentration 2500 nM) | 7.2 | 0.6 | 0.1 | 0 | 0.3 | 0 | 0.5 | 4.9 | 0.2 | 0 | 0 | 0.5 | 0 | 0.2 | 0.4 | 0.6 | 0 | 0 | 3.9 | 0.5 |
| CC[C@@H]1CN(C(=O)NCC(F)(F)F)C[C@@H]1c1cnc2cnc3[nH]ccc3n12 [Upadacitinib] (top concentration 10000 nM) | -7.16 | -7.16 | -6.66 | -7.16 | -6.76 | -7.16 | -7.16 | -7.16 | -7.16 | -5.16 | -0.46 | -6.46 | -7.16 | -7.16 | -7.16 | -7.16 | -5.96 | -3.16 | -7.16 | -7.16 |
| O=C(O)CC1CC(c2ccccc2)=NO1 (stereo not given) [VGX-1027] (top concentration 10000 nM) | -0.04 | -0.04 | -0.04 | -0.04 | -0.04 | -0.04 | -0.04 | -0.04 | -0.04 | -0.04 | -0.04 | -0.04 | -0.04 | 0.16 | -0.04 | -0.04 | -0.04 | -0.04 | -0.04 | -0.04 |
| CCCCC(=O)OCC(=O)[C@]1(O)Cc2c(O)c3c(c(O)c2[C@@H](O[C@H]2C[C@H](NC(=O)C(F)(F)F)[C@H](O)[C@H](C)O2)C1)C(=O)c1c(OC)cccc1C3=O [Valrubicin] (top concentration 5000 nM) | -2.62 | 17 | 11.2 | 7.78 | 0.38 | -4.12 | -2.62 | 8.48 | 10.2 | 2.98 | 16 | 7.28 | 12.6 | 18.1 | 10.8 | -1.82 | 3.18 | 5.98 | 12.2 | 4.18 |
| CCc1c(C(=O)C(N)=O)c2c(OCC(=O)O)cccc2n1Cc1ccccc1 [Varespladib] (top concentration 10000 nM) | -0.84 | -0.74 | -0.64 | -0.84 | -0.84 | -0.84 | -0.84 | -0.84 | -0.84 | -0.84 | -0.84 | 3.56 | -0.84 | 1.76 | -0.84 | -0.84 | -0.84 | -0.84 | -0.84 | -0.84 |
| CC1(C)CCC(CN2CCN(c3ccc(C(=O)NS(=O)(=O)c4ccc(NCC5CCOCC5)c([N+](=O)[O-])c4)c(Oc4cnc5[nH]ccc5c4)c3)CC2)=C(c2ccc(Cl)cc2)C1 [Venetoclax] (top concentration 1000 nM) | 30.2 | 2.2 | -3.3 | 4.5 | 20.4 | -0.9 | 9.5 | 29.5 | 28.9 | 31.8 | 31.5 | 14.2 | 8 | 6 | 8.88e-16 | 20.5 | 4.4 | 21 | 34.5 | 20.8 |
| CCCCOc1nc(N)c2c(n1)N(Cc1cccc(CN3CCCC3)c1)CC(=O)N2 [Vesatolimod] (top concentration 10000 nM) | -3.52 | -2.92 | -3.52 | -3.32 | -3.52 | -3.52 | -3.52 | -3.52 | -3.22 | -3.52 | -3.52 | -3.52 | -3.52 | -3.52 | -3.52 | -3.52 | -3.52 | -3.52 | -3.52 | -3.52 |
| CCC1=C[C@@H]2CN(C1)Cc1c([nH]c3ccccc13)[C@@](C(=O)OC)(c1cc3c(cc1OC)N(C)[C@H]1[C@@](O)(C(=O)OC)[C@H](OC(C)=O)[C@]4(CC)C=CCN5CC[C@]31[C@@H]54)C2 [Vinorelbine] (top concentration 10000 nM) | 17.5 | 25.6 | 20.5 | 9.58 | 1.38 | 14.6 | 17.8 | 15.7 | 25.8 | 23.4 | 11 | 8.98 | 22.9 | 24.7 | 20.6 | 16.1 | 14.9 | 21.5 | 27.2 | 13.4 |
